Where two headings read alike, the source gives them in different places.
Assays:
gastric juice secretion = experiment: Shay rat pylorus ligation method (gastric juice secretion-inhibiting activity); type: in vivo, male Wistar rats; settings: sc, 4 h, 100 mg/kg s.c., 30 min before pylorus ligation, measured 4 hours after ligation
Method: The pharmacological activities of the compouns (I) were tested by a Shay rat pylorus ligation method (cf. H. Shay et al: Gastroenterol., Vol. 5, page 43, 1945) which is the most popular method for testing of gastric juice secretion-inhibiting activity. The test was carried out by using male Wistar rats, weighing about 170 g and fasting for 24 hours.
Test compounds were administered 30 minutes before the pylorus ligation in a dose of 100 mg/kg in subcutaneous route, and the volume, total acidity and/or pepsin activity of the gastric juice were measured 4 hours after the ligation. As a control, a saline solution was administered instead of the test compound. The inhibitory ratio (%) of the test compounds were calculated when the inhibitory activities of the control were counted as zero (0).
(§1) In the table, the inhibitory ratio (%) was evaluated as follows: […]

Stress Ulcer = experiment: Stress Ulcer; type: in vivo, male Wistar rats; settings: oral, 1×10^-3 mole in 0.5% CMC, before restraint and water dipping at 23° C. for 7 hours
Method: After male Wistar rats weighing about 170 g was fasted for 24 hours, the rats were restrained in a stress cage and dipped in water bath at 23° C. till chest of the animals. After 7 hours, the rats were killed and the stomach was isolated. Into the isolated stomach 10% formalin (8 ml) was poured and settled. The stomach was cut open at the greater curvature, and the length of each ulcer on the membrane was measured. Sum of the length of all ulcers was shown as ulcer index (UI). The test compound was orally administered to the rats before restraint in a stress cage in the form of 0.5% CMC suspension in a concentration of 1×10^-3 mole. As a control, only the solvent (CMC solution) was administered likewise.
The inhibitory ratio (%) of stress ulcer of the test compounds was calculated by the following equation: [formula]
as §1

[1] = saline control = 0, read-out: Inhibitory ratio, Volume of gastric juice
[2] = saline control = 0, read-out: Inhibitory ratio, Pepsin activity
[3] = saline control = 0, read-out: Inhibitory ratio, Total acidity

**Q.** How did the inhibition in vivo at 100 mg/kg (gastric juice secretion; [1]) turn out when `CCN(CC)C(=O)CCCCc1nnn[nH]1` [Compound 52, N,N-Diethyl-5-(1,2,3,4-tetrazol-5-yl)-valeramide] was run?
**A.** 10 to 50%

**Q.** And the “Inhibitory ratio of stress ulcer” value (Stress Ulcer)?
**A.** + (30 to less than 60%)

**Q.** Which inhibition in vivo at 100 mg/kg (gastric juice secretion; [2]) does the source give for `CCN(C(=O)CCCSc1nnnn1C)C1CCCCCC1` [Compound 20, N-Ethyl-N-cycloheptyl-4-(1-methyl-1,2,3,4-tetrazol-5-yl)thio-butyramide] here?
**A.** < 10%

**Q.** And the inhibition in vivo at 100 mg/kg (gastric juice secretion; [3])?
**A.** 10 to 50%

**Q.** What about the inhibition in vivo at 100 mg/kg (gastric juice secretion; [1]) of the same compound?
**A.** > 50%

**Q.** Which results are given for `CCN(CC)C(=O)CCCCc1nnnn1-c1ccccc1` [Compound 35, N,N-Diethyl-5-(1-phenyl-1,2,3,4-tetrazol-5-yl)valeramide]?
**A.** inhibition in vivo at 100 mg/kg (gastric juice secretion; [2]): 10 to 50%; inhibition in vivo at 100 mg/kg (gastric juice secretion; [3]): 10 to 50%; inhibition in vivo at 100 mg/kg (gastric juice secretion; [1]): 10 to 50%; Inhibitory ratio of stress ulcer (Stress Ulcer): + (30 to less than 60%)

**Q.** How did the inhibition in vivo at 100 mg/kg (gastric juice secretion; [2]) turn out when `Cn1nnnc1SCCCC(=O)N(Cc1ccccc1)Cc1ccccc1` [Compound 22, N,N-Dibenzyl-4-(1-methyl-1,2,3,4-tetrazol-5-yl)thio-butyramide] was run?
**A.** < 10%

**Q.** And the inhibition in vivo at 100 mg/kg (gastric juice secretion; [3])?
**A.** 10 to 50%

**Q.** And the inhibition in vivo at 100 mg/kg (gastric juice secretion; [1])?
**A.** 10 to 50%

**Q.** Which results are given for `CC(=O)N1CCN(C(=O)CCCSc2nnnn2C)CC1` [Compound 32, 1-Methyl-5-[3-(4-acetyl-1-piperazinylcarbonyl)propyl]thio-1,2,3,4-tetrazol]?
**A.** inhibition in vivo at 100 mg/kg (gastric juice secretion; [2]): 10 to 50%; inhibition in vivo at 100 mg/kg (gastric juice secretion; [3]): 10 to 50%; inhibition in vivo at 100 mg/kg (gastric juice secretion; [1]): 10 to 50%

**Q.** Which inhibition in vivo at 100 mg/kg (gastric juice secretion; [1]) does the source give for `Cn1nnnc1SCCCC(=O)N(CCO)c1ccccc1` [Compound 40, N-(2-Hydroxyethyl)-N-phenyl-4-(1-methyl-1,2,3,4-tetrazol-5-yl)thio-butyramide] here?
**A.** 10 to 50%

**Q.** With `Cn1nnnc1SCCCC(=O)N1CCCCC1` [Compound 25, 1-Methyl-5-(3-piperidylcarbonylpropyl)thio-1,2,3,4-tetrazole] as the compound, how does the inhibition in vivo at 100 mg/kg (gastric juice secretion; [2]) read?
**A.** 10 to 50%

**Q.** What about the inhibition in vivo at 100 mg/kg (gastric juice secretion; [3]) of the same compound?
**A.** 10 to 50%

**Q.** What about the inhibition in vivo at 100 mg/kg (gastric juice secretion; [1]) of the same compound?
**A.** 10 to 50%

**Q.** What does the source list for `CCN(C(=O)CCCCc1nnnn1C)C1CCCCC1` [Compound 51, N-Ethyl-N-cyclohexyl-5-(1-methyl-1,2,3,4-tetrazol-5-yl)valeramide]?
**A.** inhibition in vivo at 100 mg/kg (gastric juice secretion; [1]): 10 to 50%; Inhibitory ratio of stress ulcer (Stress Ulcer): + (30 to less than 60%)

**Q.** Which inhibition in vivo at 100 mg/kg (gastric juice secretion; [2]) does the source give for `CCN(C(=O)CCCSc1nnnn1C)C1CCCC1` [Compound 29, N-Ethyl-N-cyclopentyl-4-(1-methyl-1,2,3,4-tetrazol-5-yl)thio-butyramide] here?
**A.** 10 to 50%

**Q.** And the inhibition in vivo at 100 mg/kg (gastric juice secretion; [3])?
**A.** > 50%

**Q.** What about the inhibition in vivo at 100 mg/kg (gastric juice secretion; [1]) of the same compound?
**A.** > 50%

**Q.** With `CCCCn1nnnc1CSCCC(=O)NCC` [Compound 15, N-Ethyl-3-(1-butyl-1,2,3,4-tetrazol-5-yl)-methylthio-propionamide] as the compound, how does the “Inhibitory ratio of stress ulcer” value (Stress Ulcer) read?
**A.** ++ (more than 60%)

**Q.** What does the source list for `CC(C)N(C(=O)CCCSc1nnnn1C)C1CCCCC1` [Compound 24, N-Isopropyl-N-cyclohexyl-4-(1-methyl-1,2,3,4-tetrazol-5-yl)thio-butyramide]?
**A.** inhibition in vivo at 100 mg/kg (gastric juice secretion; [2]): < 10%; inhibition in vivo at 100 mg/kg (gastric juice secretion; [3]): 10 to 50%; inhibition in vivo at 100 mg/kg (gastric juice secretion; [1]): > 50%

**Q.** For `Cn1nnnc1SCCCC(=O)Nc1ccccn1` [Compound 27, N-(2-Pyridyl)-4-(1-methyl-1,2,3,4-tetrazol-5-yl)thio-butyramide], which inhibition in vivo at 100 mg/kg (gastric juice secretion; [2]) is on record?
**A.** 10 to 50%

**Q.** What about the inhibition in vivo at 100 mg/kg (gastric juice secretion; [3]) of the same compound?
**A.** 10 to 50%

**Q.** And the inhibition in vivo at 100 mg/kg (gastric juice secretion; [1])?
**A.** 10 to 50%

**Q.** Which inhibition in vivo at 100 mg/kg (gastric juice secretion; [1]) does the source give for `CCN(C(=O)CCSCc1nnnn1CC)C1CCCCC1` [Compound 36, N-Ethyl-N-cyclohexyl-3-(1-ethyl-1,2,3,4-tetrazol-5-yl)methylthio-propionamide] here?
**A.** > 50%

**Q.** With `CCCCCCNC(=O)CCCCc1nnnn1-c1ccccc1` [Compound 48, N-(n-Hexyl)-5-(1-phenyl-1,2,3,4-tetrazol-5-yl)valeramide] as the compound, how does the “Inhibitory ratio of stress ulcer” value (Stress Ulcer) read?
**A.** + (30 to less than 60%)

**Q.** With `CCN(CC)C(=O)CCSCc1nnnn1CC` [Compound 14, N,N-Diethyl-3-(1-ethyl-1,2,3,4-tetrazol-5-yl)methylthio-propionamide] as the compound, how does the inhibition in vivo at 100 mg/kg (gastric juice secretion; [1]) read?
**A.** 10 to 50%

**Q.** And the “Inhibitory ratio of stress ulcer” value (Stress Ulcer)?
**A.** ++ (more than 60%)

**Q.** For `CC(C)N(C(=O)CCCCc1nnnn1-c1ccccc1)C1CCCCC1` [Compound 50, N-Isopropyl-N-cyclohexyl-5-(1-phenyl-1,2,3,4-tetrazol-5-yl)valeramide], which “Inhibitory ratio of stress ulcer” value (Stress Ulcer) is on record?
**A.** ++ (more than 60%)

**Q.** With `CCc1ccc(-n2nnnc2CSCCC(=O)O)cc1` [Compound 53, 3-[1-(4-Ethylphenyl)-1,2,3,4-tetrazol-5-yl]-methylthio-propionic acid] as the compound, how does the inhibition in vivo at 100 mg/kg (gastric juice secretion; [1]) read?
**A.** 10 to 50%

**Q.** Which inhibition in vivo at 100 mg/kg (gastric juice secretion; [1]) does the source give for `Cn1nnnc1SCCCC(=O)Nc1ccc([N+](=O)[O-])cc1` [Compound 43, N-(4-Nitrophenyl)-4-(1-methyl-1,2,3,4-tetrazol-5-yl)thio-butyramide] here?
**A.** 10 to 50%

**Q.** For `CC(C)N(C(=O)CCCSc1nnnn1C)C(C)C` [Compound 21, N,N-Diisopropyl-4-(1-methyl-1,2,3,4-tetrazol-5-yl)thio-butyramide], which inhibition in vivo at 100 mg/kg (gastric juice secretion; [2]) is on record?
**A.** < 10%

**Q.** What about the inhibition in vivo at 100 mg/kg (gastric juice secretion; [3]) of the same compound?
**A.** 10 to 50%

**Q.** What about the inhibition in vivo at 100 mg/kg (gastric juice secretion; [1]) of the same compound?
**A.** > 50%

**Q.** Which inhibition in vivo at 100 mg/kg (gastric juice secretion; [1]) does the source give for `Cc1c(Cl)cccc1NC(=O)CCCSc1nnnn1C` [Compound 42, N-(2-Methyl-3-chlorophenyl)-4-(1-methyl-1,2,3,4-tetrazol-5-yl)thio-butyramide] here?
**A.** 10 to 50%

**Q.** Which inhibition in vivo at 100 mg/kg (gastric juice secretion; [2]) does the source give for `CCN(CC1CCCCC1)C(=O)CCCSc1nnnn1C` [Compound 30, N-Ethyl-N-cyclohexylmethyl-4-(1-methyl-1,2,3,4-tetrazol-5-yl)thio-butyramide] here?
**A.** 10 to 50%

**Q.** And the inhibition in vivo at 100 mg/kg (gastric juice secretion; [3])?
**A.** 10 to 50%

**Q.** What about the inhibition in vivo at 100 mg/kg (gastric juice secretion; [1]) of the same compound?
**A.** > 50%

**Q.** Which results are given for `CCN(C(=O)CCCCc1nnnn1C1CCCCC1)C1CCCCC1` [Compound 23, N-Ethyl-N-cyclohexyl-5-(1-cyclohexyl-1,2,3,4-tetrazol-5-yl)valeramide]?
**A.** inhibition in vivo at 100 mg/kg (gastric juice secretion; [2]): < 10%; inhibition in vivo at 100 mg/kg (gastric juice secretion; [3]): 10 to 50%; inhibition in vivo at 100 mg/kg (gastric juice secretion; [1]): 10 to 50%; Inhibitory ratio of stress ulcer (Stress Ulcer): + (30 to less than 60%)

**Q.** Which “Inhibitory ratio of stress ulcer” value (Stress Ulcer) does the source give for `CCN(CC)C(=O)CCCSCc1nnnn1CC` [Compound 18, N,N-Diethyl-4-(1-ethyl-1,2,3,4-tetrazol-5-yl)methylthio-butyramide] here?
**A.** + (30 to less than 60%)

**Q.** For `CCN(C(=O)CCCSc1nnnn1-c1ccccc1)C1CCCCC1` [Compound 31, N-Ethyl-N-cyclohexyl-4-(1-phenyl-1,2,3,4-tetrazol-5-yl)thio-butyramide], which inhibition in vivo at 100 mg/kg (gastric juice secretion; [2]) is on record?
**A.** 10 to 50%

**Q.** And the inhibition in vivo at 100 mg/kg (gastric juice secretion; [3])?
**A.** 10 to 50%

**Q.** And the inhibition in vivo at 100 mg/kg (gastric juice secretion; [1])?
**A.** > 50%

**Q.** How did the inhibition in vivo at 100 mg/kg (gastric juice secretion; [2]) turn out when `Cn1nnnc1SCCCC(=O)N1CCOCC1` [Compound 33, 1-Methyl-5-(3-morpholinocarbonylpropyl)thio-1,2,3,4-tetrazole] was run?
**A.** 10 to 50%

**Q.** What about the inhibition in vivo at 100 mg/kg (gastric juice secretion; [3]) of the same compound?
**A.** 10 to 50%

**Q.** And the inhibition in vivo at 100 mg/kg (gastric juice secretion; [1])?
**A.** 10 to 50%

**Q.** `Cn1nnnc1SCCCC(=O)Nc1ccc(S(N)(=O)=O)cc1` [Compound 41, N-(4-Sulfamoylphenyl)-4-(1-methyl-1,2,3,4-tetrazol-5-yl)thio-butyramide] was tested. Which inhibition in vivo at 100 mg/kg (gastric juice secretion; [1]) did it give?
**A.** 10 to 50%

**Q.** With `Cn1nnnc1SCCCC(=O)O` [Compound 38, 4-(1-methyl-1,2,3,4-tetrazol-5-yl)thiobutyric acid] as the compound, how does the inhibition in vivo at 100 mg/kg (gastric juice secretion; [1]) read?
**A.** 10 to 50%

**Q.** For `CCN(CC)C(=O)CCCCc1nnnn1C` [Compound 34, N,N-Diethyl-5-(1-methyl-1,2,3,4-tetrazol-5-yl)valeramide], which inhibition in vivo at 100 mg/kg (gastric juice secretion; [2]) is on record?
**A.** 10 to 50%

**Q.** What about the inhibition in vivo at 100 mg/kg (gastric juice secretion; [3]) of the same compound?
**A.** 10 to 50%

**Q.** What about the inhibition in vivo at 100 mg/kg (gastric juice secretion; [1]) of the same compound?
**A.** 10 to 50%

**Q.** And the “Inhibitory ratio of stress ulcer” value (Stress Ulcer)?
**A.** + (30 to less than 60%)

**Q.** For `COC(=O)CCCCc1nnnn1C1CCCCC1` [Compound 54, Methyl 5-(1-cyclohexyl-1,2,3,4-tetrazol-5-yl)valerate], which inhibition in vivo at 100 mg/kg (gastric juice secretion; [1]) is on record?
**A.** 10 to 50%
